From patent US12022830B2, “Formulations of metal and ascorbic acid complexes, their obtaining and use” (INTERMAG SP. Z O.O., priority 2017, dated 2024)

What was measured:
[1] = Study of solution stability for a given complex; format: physicochemical
Alternaria brassicae = settings: foliar, 32.6 g TiO(Asc)2.2H2O/ha, three dates
Description: (§1) The experiments on the effect of the formulations according to the invention (liquid preparation obtained after dissolving the solid blend, according to the invention) were performed on winter oilseed rape, winter wheat and corn plants at the Institute of Plant Protection in Poznan at the Experimental Station in Winna Góra.

Botrytis cinerea = settings: foliar, 32.6 g TiO(Asc)2.2H2O/ha, three dates
Description: as §1

cabbage seed weevil = settings: foliar, 32.6 g TiO(Asc)2.2H2O/ha, three dates
Description: as §1

corn of Wilga type = settings: foliar, 32.6 g TiO(Asc)2.2H2O/ha, BBCH 12-14, 18-20, 35-39
Description: as §1

wheat of Figura type = settings: foliar, 32.6 g TiO(Asc)2.2H2O/ha, BBCH 22-29, 30-51, 51-73
Description: as §1

[2] = test system: winter oilseed rape of Artoga type; settings: foliar, 32.6 g TiO(Asc)2.2H2O/ha, BBCH 21-36, 50-61, 69-73
Description: as §1

corn borer moth = assay: Infestation of corn by corn borer moth; format: in vivo; settings: foliar, 32.6 g TiO(Asc)2.2H2O/ha, three dates
cereal leaf beetle = assay: Infestation of wheat by cereal leaf beetle; format: in vivo; settings: foliar, 32.6 g TiO(Asc)2.2H2O/ha, three dates
fragility of stem base = assay: Infestation of wheat through the fragility of stem base; format: in vivo; settings: treated plants; control 48% infested plants
[3] = test system: fusarium foot and root rot; assay: Fusarium foot and root rot on wheat; format: in vivo; settings: sprayed plants; control 12% of infestations
Cladosporium herbarum = assay: Infestation of wheat spikes by Cladosporium herbarum; format: in vivo; settings: sprayed plants, control 20%
From the text: (§2) In the case of diseases attacking spikes, on the control combination, infestation by Cladosporium herbarum at 20%, by Septoria nodorum at 10% and by Gibberella avenacea at 10% were found. On sprayed plants, infestations were 1%, 1% and 0% respectively.

Septoria nodorum = assay: Infestation of wheat spikes by Septoria nodorum; format: in vivo; settings: sprayed plants, control 10%
From the text: as §2

Gibberella avenacea = assay: Infestation of wheat spikes by Gibberella avenacea; format: in vivo; settings: sprayed plants, control 10%
From the text: as §2

butterhead lettuce = assay: Cultivation of butterhead lettuce, uptake of nutrients; format: in vivo; settings: aboveground parts, dry mass, 20th day, two sprays, 0.0085% Ti
Description: TiO(OH)(C6H7O6).1H2O was used in the amount of 9.7 g/ha (0.005%, 0.0085% Ti), (TiO(C6H7O6)2.2H2O) was used in the amount of 16.3 g/ha (0.008%, 0.0085% Ti), TiO(C6H7O6)3.3H2O was used in the amount of 22.9 g/ha (0.011%, 0.0085% Ti), TiO(C6H7O6)4.5H2O was used in the amount of 30.9 g/ha (0.015%, 0.0085% Ti) in a single spray after previously dissolving them in 200 l of water. The spraying was performed with a manual sprayer at the smallest possible drop setting. Plants were sprayed evenly from a distance of about 30 cm.
Substrate: a mixture of peat deacidified with chalk (producer: Hollas) and rinsed quartz sand with a granulation of 4-8 mm. Volume ratio of the mixture: 1:4. Agrofoska (Intermag) fertiliser in the amount of 3 kg/m^3 was added to the substrate. Pots with a volume of about 3 l were used.
Spraying was performed twice with the preparation with the same concentrations of working liquid: spray 1 on the 7th day of the experiment; spray 2 on the 14th day of the experiment.
The experiment was randomised and there were 10 repetitions for each combination (1 repetition=one pot)
(§3) The content of nutrients was tested in the aboveground parts of plants, based on dry mass content.

wheat = assay: Cultivation of wheat, chlorophyll content and uptake of nutrients; format: in vivo; settings: for Content of chlorophyll in leaves: 20th day of the experiment; for Fe content / K content / P content / Ti content / Zn content: aboveground parts, dry mass, 20th day
Description: Experiments for the use of titanium complex in the solid formulation TiO(Asc)2.2H2O on wheat were performed analogously to Example 14.
as §3

[4] = test system: Iceberg cabbage lettuce (Lactuca sativa) of Rubette type; assay: Titanyl ascorbates in cultivation of iceberg lettuce, head mass, chlorophyll, flavonoids; format: in vivo; settings: foliar twice, 0.00085% Ti, total 3.4 g Ti/ha
Description: Iceberg cabbage lettuce (Lactuca sativa) of Rubette type was cultivated in a plastic tunnel in pots with a capacity of 3 l filled with a peat substrate. […] In two applications, the total titanium dose per hectare was 3.4 g Ti/ha. The experiment was performed in a random block system, combinations were drawn in 4 blocks. […] Flavonoids are antioxidant compounds, they protect plant cell structures against reactive oxygen species formed under the influence of abiotic and biotic stress factors. These compounds are the first to be synthesised when unfavourable conditions of the growing environment occur.

rape = assay: Cultivation of rape, vegetative mass and uptake of nutrients; format: in vivo; settings: for Number of plant leaves / Total wet mass of the aboveground part / Wet mass of leaves / Wet mass of stem: 20th day of the experiment; for Fe content / Mg content / Mn content / P content / Si content / Ti content / Zn content: aboveground parts, dry mass, 20th day
Description: Experiments for the use of titanium complex for rape were performed analogously to Example 14.
as §3

[5] = 5% solution obtained by dissolving in water

**Q.** With `O.O.O=C1OC(C(O)CO)C([O-])=C1O.O=C1OC(C(O)CO)C([O-])=C1O.[O]=[Ti+2]` (stereo not drawn) [TiO(C6H7O6)2•2H2O, titanyl ascorbate] as the compound, how does the “stable during long storage” value [1, 5] read?
**A.** up to 12 months

**Q.** And the “temperature at which the solution remains stable” value [1, 5]?
**A.** −5 to +40 °C

**Q.** What about the “behaviour after freezing and thawing” value ([1]; 5% solution, overcooled below −7° C., then raised above 0° C.) of the same compound?
**A.** retains its original physicochemical properties

**Q.** And the “stability of the solution among the complexes” value ([1]; complexes in the form of solutions)?
**A.** most stable

**Q.** And the “Infestation of siliques by Alternaria brassicae smaller than the control combination” value (Alternaria brassicae)?
**A.** 52%

**Q.** What about the “Infestation of siliques by Botrytis cinerea smaller than the control combination” value (Botrytis cinerea) of the same compound?
**A.** 77%

**Q.** And the “Siliques damaged by cabbage seed weevil fewer than in the control combination” value (cabbage seed weevil)?
**A.** 80%

**Q.** And the “Corn yield increased compared to the control combination” value (corn of Wilga type)?
**A.** 13 % (m/m)

**Q.** And the “Wheat yield increased compared to the control combination” value (wheat of Figura type)?
**A.** 16 % (m/m)

**Q.** What about the “Rape yield increased compared to the control combination” value [2] of the same compound?
**A.** 15%

**Q.** And the “decrease in the infestation by corn borer moth in comparison to untreated plants” value (corn borer moth)?
**A.** 43%

**Q.** And the “decrease in the infestation by cereal leaf beetle in comparison to untreated plants” value (cereal leaf beetle)?
**A.** 74%

**Q.** And the “infestation through the fragility of stem base” value (fragility of stem base)?
**A.** 4%

**Q.** What about the “symptoms of fusarium foot and root rot” value [3] of the same compound?
**A.** not any symptoms

**Q.** What about the “infestation by Cladosporium herbarum” value (Cladosporium herbarum) of the same compound?
**A.** 1%

**Q.** What about the “infestation by Septoria nodorum” value (Septoria nodorum) of the same compound?
**A.** 1%

**Q.** And the “infestation by Gibberella avenacea” value (Gibberella avenacea)?
**A.** 0%

**Q.** And the B content (butterhead lettuce)?
**A.** 83.31 mg/kg

**Q.** What about the Ca content (butterhead lettuce) of the same compound?
**A.** 17.41 g/kg

**Q.** What about the Cu content (butterhead lettuce) of the same compound?
**A.** 7.13 mg/kg

**Q.** What about the Fe content (butterhead lettuce) of the same compound?
**A.** 794.44 mg/kg

**Q.** What about the K content (butterhead lettuce) of the same compound?
**A.** 7.48 g/kg

**Q.** And the Mg content (butterhead lettuce)?
**A.** 6.66 g/kg

**Q.** What about the Mn content (butterhead lettuce) of the same compound?
**A.** 687.51 mg/kg

**Q.** And the S content (butterhead lettuce)?
**A.** 7.41 g/kg

**Q.** And the Ti content (butterhead lettuce)?
**A.** 4.27 mg/kg

**Q.** What about the Zn content (butterhead lettuce) of the same compound?
**A.** 154.18 mg/kg

**Q.** And the “Content of chlorophyll in leaves” value (wheat)?
**A.** 48.03 SPAD

**Q.** And the Fe content (wheat)?
**A.** 85.056 mg/kg

**Q.** What about the K content (wheat) of the same compound?
**A.** 55.27 g/kg

**Q.** And the P content (wheat)?
**A.** 10.43 g/kg

**Q.** And the Ti content (wheat)?
**A.** 1.390 mg/kg

**Q.** And the Zn content (wheat)?
**A.** 48.850 mg/kg

**Q.** What about the Chlorophyll [4] of the same compound?
**A.** 27.4 μg/cm^2

**Q.** And the Dry mass [4]?
**A.** 7.23 g

**Q.** And the Flavonoids [4]?
**A.** 0.32 μg/cm^2

**Q.** What about the Mass of head [4] of the same compound?
**A.** 82.8 g

**Q.** For `O.O=C1OC(C(O)CO)C([O-])=C1O.[OH-].[O]=[Ti+2]` (stereo not drawn) [TiO(OH)(C6H7O6)•1H2O, titanyl ascorbate], which “Number of plant leaves” value (rape) is on record?
**A.** 8.28

**Q.** And the “Total wet mass of the aboveground part” value (rape)?
**A.** 38.3

**Q.** What about the “Wet mass of leaves” value (rape) of the same compound?
**A.** 19.00 g

**Q.** What about the “Wet mass of stem” value (rape) of the same compound?
**A.** 21.53 g

**Q.** And the Fe content (rape)?
**A.** 1957.19 mg/kg

**Q.** What about the Mg content (rape) of the same compound?
**A.** 8.859 g/kg

**Q.** And the Mn content (rape)?
**A.** 1350.53 mg/kg

**Q.** What about the P content (rape) of the same compound?
**A.** 8.74 g/kg

**Q.** And the Si content (rape)?
**A.** 118.21 mg/kg

**Q.** And the Ti content (rape)?
**A.** 1.55 mg/kg

**Q.** What about the Zn content (rape) of the same compound?
**A.** 362.63 mg/kg

**Q.** And the “Content of chlorophyll in leaves” value (wheat)?
**A.** 47.17 SPAD

**Q.** What about the Fe content (wheat) of the same compound?
**A.** 96.280 mg/kg

**Q.** What about the K content (wheat) of the same compound?
**A.** 57.21 g/kg

**Q.** What about the P content (wheat) of the same compound?
**A.** 9.86 g/kg

**Q.** And the Ti content (wheat)?
**A.** 1.444 mg/kg

**Q.** What about the Zn content (wheat) of the same compound?
**A.** 47.880 mg/kg

**Q.** What does the source list for titanyl ascorbate [TiO(C6H7O6)3•3H2O]?
**A.** B content (butterhead lettuce): 72.35 mg/kg; Ca content (butterhead lettuce): 17.84 g/kg; Cu content (butterhead lettuce): 5.46 mg/kg; Fe content (butterhead lettuce): 842.63 mg/kg; K content (butterhead lettuce): 6.97 g/kg; Mg content (butterhead lettuce): 6.03 g/kg; Mn content (butterhead lettuce): 757.37 mg/kg; Si content (butterhead lettuce): 257.62 mg/kg; Ti content (butterhead lettuce): 2.37 mg/kg; Zn content (butterhead lettuce): 155.38 mg/kg; Number of plant leaves (rape): 7.94; Total wet mass of the aboveground part (rape): 39.61; Wet mass of leaves (rape): 17.74 g; Wet mass of stem (rape): 21.58 g; Fe content (rape): 1739.07 mg/kg; Mg content (rape): 7.86 g/kg; Mn content (rape): 1440.47 mg/kg; P content (rape): 11.43 g/kg; Si content (rape): 159.40 mg/kg; Ti content (rape): 1.07 mg/kg; Zn content (rape): 413.68 mg/kg; Content of chlorophyll in leaves (wheat): 45.60 SPAD; Fe content (wheat): 97.390 mg/kg; K content (wheat): 57.22 g/kg; P content (wheat): 9.47 g/kg; Ti content (wheat): 1.311 mg/kg; Zn content (wheat): 51.410 mg/kg

**Q.** For titanyl ascorbate [TiO(C6H7O6)4•5H2O], which “Content of chlorophyll in leaves” value (wheat) is on record?
**A.** 47.06 SPAD

**Q.** And the Fe content (wheat)?
**A.** 100.910 mg/kg

**Q.** And the K content (wheat)?
**A.** 53.29 g/kg

**Q.** What about the P content (wheat) of the same compound?
**A.** 10.09 g/kg

**Q.** What about the Ti content (wheat) of the same compound?
**A.** 1.150 mg/kg

**Q.** What about the Zn content (wheat) of the same compound?
**A.** 44.290 mg/kg
